Test results reported in US7902252B2, “Inhibitors of D-amino acid oxidase” (Sepracor, Inc., priority 2007, dated 2011).

target: Human DAAO (Homo sapiens, UniProt P14920); experiment: D-Amino Acid Oxidase enzyme assay (D-serine, horseradish peroxidase/Amplex Red coupled fluorescence); type: biochemical; conditions: D-serine 5 mM, pH 7.4
Protocol: DAAO enzyme activity was measured using the substrate D-serine at its Michaelis-Menton Km of 5 mM. The rate of oxidation is measured as a rate of production of hydrogen peroxide, which was detected using the enzyme horseradish peroxidase (Sigma cat. No. P-8375). This coupled reaction uses the enzyme substrate Amplex Red (Molecular Probes), which is converted to the fluorescent reaction product, resorufin (excitation 530-560 nm; emission ˜590 nm). Although DAAO has a higher pH optimum, all reagents were prepared in 50 mM sodium phosphate buffer at pH 7.4 and inhibition curves were generated at this pH.
The final concentrations of components in 200 μl total volume per well (black clear-bottom 96-well plate, Costar) were:
(a) Horseradish peroxidase: 4 Units per mL
(d) Amplex Red reagent: 50 uM
The reactions were initiated by addition of DAAO enzyme and the fluorescence was monitored. H2O2 was added at 16 uM final concentration to a control well on each plate to test for compound interference with a coupled enzyme. Inhibition curves were generated in the presence of varying concentrations of the inhibitor and IC50 values were calculated for each inhibitor.

Human DAAO, sequence (P14920 whole entry): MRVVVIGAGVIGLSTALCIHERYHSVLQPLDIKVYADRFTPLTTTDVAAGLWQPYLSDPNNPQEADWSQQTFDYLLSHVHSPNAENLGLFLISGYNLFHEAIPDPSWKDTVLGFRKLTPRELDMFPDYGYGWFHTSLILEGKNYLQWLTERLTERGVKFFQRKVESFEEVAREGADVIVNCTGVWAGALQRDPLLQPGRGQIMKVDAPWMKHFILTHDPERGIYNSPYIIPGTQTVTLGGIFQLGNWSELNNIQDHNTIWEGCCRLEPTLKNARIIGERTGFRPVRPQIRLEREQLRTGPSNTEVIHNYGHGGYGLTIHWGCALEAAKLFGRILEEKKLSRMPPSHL

IC50 [µM] | Structure (SMILES)
≤ 100 | O=C(O)c1cc2c([nH]1)CCCC2Cc1ccccc1 (stereo not drawn) [Compound 32, 4-benzyl-4,5,6,7-tetrahydro-1H-indole-2-carboxylic acid]
≤ 1 | CC(C)c1ccc(CC2CCc3[nH]c(C(=O)O)cc32)cc1 (stereo not drawn) [Compound 33, 4-(4-isopropylbenzyl)-1,4,5,6-tetrahydrocyclopenta[b]pyrrole-2-carboxylic acid]
≤ 100 | COc1ccc(CCC2CCc3[nH]c(C(=O)O)cc32)cc1 (stereo not drawn) [Compound 34, 4-(4-methoxyphenethyl)-1,4,5,6-tetrahydrocyclopenta[b]pyrrole-2-carboxylic acid]
≤ 100 | CC(C)(CC1CCc2[nH]c(C(=O)O)cc21)c1ccccc1 (stereo not drawn) [Compound 35, 4-(2-methyl-2-phenylpropyl)-1,4,5,6-tetrahydrocyclopenta[b]pyrrole-2-carboxylic acid]
≤ 1 | O=C(O)c1cc2c([nH]1)CCC2CCCc1ccccc1 (stereo not drawn) [Compound 36, 4-(3-phenylpropyl)-1,4,5,6-tetrahydrocyclopenta[b]pyrrole-2-carboxylic acid]
≤ 1 | Cc1ccc(C2CCc3[nH]c(C(=O)O)cc32)cc1 (stereo not drawn) [Compound 37, 4-p-tolyl-1,4,5,6-tetrahydrocyclopenta[b]pyrrole-2-carboxylic acid]
≤ 100 | O=C(O)c1cc2c([nH]1)CCC2CC(F)(F)F (stereo not drawn) [Compound 38, 4-(2,2,2-trifluoroethyl)-1,4,5,6-tetrahydrocyclopenta[b]pyrrole-2-carboxylic acid]
≤ 0.1 | O=C(O)c1cc2c([nH]1)CCC2Cc1cc(F)cc(Cl)c1 (stereo not drawn) [Compound 55, 4-(3-chloro-5-fluorobenzyl)-1,4,5,6-tetrahydrocyclopenta[b]pyrrole-2-carboxylic acid]
≤ 0.1 | O=C(O)c1cc2c([nH]1)CCC2Cc1cccc(Cl)c1 (stereo not drawn) [Compound 56, 4-(3-chlorobenzyl)-1,4,5,6-tetrahydrocyclopenta[b]pyrrole-2-carboxylic acid]
≤ 1 | COc1ccc(CC2CCc3[nH]c(C(=O)O)cc32)cc1OC (stereo not drawn) [Compound 69, 4-(3,4-dimethoxybenzyl)-1,4,5,6-tetrahydrocyclopenta[b]pyrrole-2-carboxylic acid]
≤ 1 | Cc1ccc(CC2CCc3[nH]c(C(=O)O)cc32)cc1C (stereo not drawn) [Compound 71, 4-(3,4-dimethylbenzyl)-1,4,5,6-tetrahydrocyclopenta[b]pyrrole-2-carboxylic acid]
≤ 100 | Cc1cc(C)cc(CC2CCc3[nH]c(C(=O)O)cc32)c1 (stereo not drawn) [Compound 72, 4-(3,5-dimethylbenzyl)-1,4,5,6-tetrahydrocyclopenta[b]pyrrole-2-carboxylic acid]
≤ 0.1 | O=C(O)c1cc2c([nH]1)CCC2Cc1cccc(C2CC2)c1 (stereo not drawn) [Compound 73, 4-(3-cyclopropylbenzyl)-1,4,5,6-tetrahydrocyclopenta[b]pyrrole-2-carboxylic acid]
≤ 0.1 | C#Cc1cccc(CC2CCc3[nH]c(C(=O)O)cc32)c1 (stereo not drawn) [Compound 74, 4-(3-ethynylbenzyl)-1,4,5,6-tetrahydrocyclopenta[b]pyrrole-2-carboxylic acid]
≤ 1 | CC(=O)c1cccc(CC2CCc3[nH]c(C(=O)O)cc32)c1 (stereo not drawn) [Compound 76, 4-(3-acetylbenzyl)-1,4,5,6-tetrahydrocyclopenta[b]pyrrole-2-carboxylic acid]
≤ 1 | NC(=O)c1cccc(CC2CCc3[nH]c(C(=O)O)cc32)c1 (stereo not drawn) [Compound 77, 4-(3-carbamoylbenzyl)-1,4,5,6-tetrahydrocyclopenta[b]pyrrole-2-carboxylic acid]
≤ 1 | O=C(O)c1cc2c([nH]1)CCC2Cc1ccc(-c2ccccc2)cc1 (stereo not drawn) [Compound 81, 4-(biphenyl-4-ylmethyl)-1,4,5,6-tetrahydrocyclopenta[b]pyrrole-2-carboxylic acid]
≤ 1 | O=C(O)c1cc2c([nH]1)CCC2Cc1cccc(-c2ccccc2)c1 (stereo not drawn) [Compound 82, 4-(biphenyl-3-ylmethyl)-1,4,5,6-tetrahydrocyclopenta[b]pyrrole-2-carboxylic acid]
≤ 1 | O=C(O)c1cc2c([nH]1)CCC2Cc1cccc(-c2cccnc2)c1 (stereo not drawn) [Compound 83, 4-(3-(pyridin-3-yl)benzyl)-1,4,5,6-tetrahydrocyclopenta[b]pyrrole-2-carboxylic acid]
≤ 1 | O=C(O)c1cc2c([nH]1)CCC2Cc1cccc(-c2ccc(C(F)(F)F)cc2)c1 (stereo not drawn) [Compound 84, 4-((4′-(trifluoromethyl)biphenyl-3-yl)methyl)-1,4,5,6-tetrahydrocyclopenta[b]pyrrole-2-carboxylic acid]
≤ 100 | O=C(O)c1cc2c([nH]1)CCC2Cc1cccc(-c2ccc(O)cc2)c1 (stereo not drawn) [Compound 85, 4-((4′-hydroxybiphenyl-3-yl)methyl)-1,4,5,6-tetrahydrocyclopenta[b]pyrrole-2-carboxylic acid]

IC50 [µM] | Structure (SMILES)
≤ 1 | O=C(O)c1cc2c([nH]1)CCC2Cc1cccc(-c2ccc(CO)cc2)c1 (stereo not drawn) [Compound 86, 4-((4′-(hydroxymethyl)biphenyl-3-yl)methyl)-1,4,5,6-tetrahydrocyclopenta[b]pyrrole-2-carboxylic acid]
≤ 1 | O=C(O)c1cc2c([nH]1)CCC2Cc1cccc(C2CCOC2)c1 (stereo not drawn) [Compound 90, 4-(3-(tetrahydrofuran-3-yl)benzyl)-1,4,5,6-tetrahydrocyclopenta[b]pyrrole-2-carboxylic acid]
≤ 0.1 | O=C(O)c1cc2c([nH]1)CCC2c1ccc(Cl)cc1 (stereo not drawn) [Compound 101, 4-(4-chlorophenyl)-1,4,5,6-tetrahydrocyclopenta[b]pyrrole-2-carboxylic acid]
≤ 0.1 | O=C(O)c1cc2c([nH]1)CCC2c1cccc(Cl)c1 (stereo not drawn) [Compound 102, 4-(3-chlorophenyl)-1,4,5,6-tetrahydrocyclopenta[b]pyrrole-2-carboxylic acid]
≤ 0.1 | O=C(O)c1cc2c([nH]1)CCC2c1cccc(Br)c1 (stereo not drawn) [Compound 103, 4-(3-bromophenyl)-1,4,5,6-tetrahydrocyclopenta[b]pyrrole-2-carboxylic acid]
≤ 100 | Cc1cc(C)cc(C2CCc3[nH]c(C(=O)O)cc32)c1 (stereo not drawn) [Compound 104, 4-(3,5-dimethylphenyl)-1,4,5,6-tetrahydrocyclopenta[b]pyrrole-2-carboxylic acid]
≤ 100 | O=C(O)c1cc2c([nH]1)CCC2c1ccc(-c2ccccc2)cc1 (stereo not drawn) [Compound 106, 4-(biphenyl-4-yl)-1,4,5,6-tetrahydrocyclopenta[b]pyrrole-2-carboxylic acid]
≤ 1 | O=C(O)c1cc2c([nH]1)CCC2c1ccc(Cc2ccccc2)cc1 (stereo not drawn) [Compound 107, 4-(4-benzylphenyl)-1,4,5,6-tetrahydrocyclopenta[b]pyrrole-2-carboxylic acid]
≤ 100 | O=C(O)c1cc2c([nH]1)CCC2NCc1ccc(Cl)cc1 (stereo not drawn) [Compound 108, 4-(4-chlorobenzylamino)-1,4,5,6-tetrahydrocyclopenta[b]pyrrole-2-carboxylic acid]
≤ 1 | CC1CCc2cc(C(=O)O)[nH]c21 (stereo not drawn) [Compound 109, 6-methyl-1,4,5,6-tetrahydrocyclopenta[b]pyrrole-2-carboxylic acid]
≤ 1 | CCCC1CCc2cc(C(=O)O)[nH]c21 (stereo not drawn) [Compound 110, 6-propyl-1,4,5,6-tetrahydrocyclopenta[b]pyrrole-2-carboxylic acid]
≤ 1 | O=C(O)c1cc2c([nH]1)C(c1cccc(F)c1)CC2 (stereo not drawn) [Compound 111, 6-(3-fluorophenyl)-1,4,5,6-tetrahydrocyclopenta[b]pyrrole-2-carboxylic acid]
≤ 1 | O=C(O)c1cc2c([nH]1)C(c1ccc(F)c(F)c1)CC2 (stereo not drawn) [Compound 112, 6-(3,4-difluorophenyl)-1,4,5,6-tetrahydrocyclopenta[b]pyrrole-2-carboxylic acid]
≤ 1 | O=C(O)c1cc2c([nH]1)C(c1ccc(Cl)cc1)CC2 (stereo not drawn) [Compound 113, 6-(4-chlorophenyl)-1,4,5,6-tetrahydrocyclopenta[b]pyrrole-2-carboxylic acid]
≤ 1 | O=C(O)c1cc2c([nH]1)C(c1cccc(Cl)c1)CC2 (stereo not drawn) [Compound 114, 6-(3-chlorophenyl)-1,4,5,6-tetrahydrocyclopenta[b]pyrrole-2-carboxylic acid]
≤ 1 | O=C(O)c1cc2c([nH]1)C(c1cccc(Br)c1)CC2 (stereo not drawn) [Compound 115, 6-(3-bromophenyl)-1,4,5,6-tetrahydrocyclopenta[b]pyrrole-2-carboxylic acid]
≤ 1 | Cc1ccc(C2CCc3cc(C(=O)O)[nH]c32)cc1 (stereo not drawn) [Compound 116, 6-p-tolyl-1,4,5,6-tetrahydrocyclopenta[b]pyrrole-2-carboxylic acid]
≤ 1 | N#Cc1cccc(C2CCc3cc(C(=O)O)[nH]c32)c1 (stereo not drawn) [Compound 117, 6-(3-cyanophenyl)-1,4,5,6-tetrahydrocyclopenta[b]pyrrole-2-carboxylic acid]
≤ 0.1 | O=C(O)c1cc2c([nH]1)C(Cc1cccc(O)c1)CC2 (stereo not drawn) [Compound 128, 6-(3-hydroxybenzyl)-1,4,5,6-tetrahydrocyclopenta[b]pyrrole-2-carboxylic acid]
≤ 1 | O=C(O)c1cc2c([nH]1)C(CCc1cccc3ccccc13)CC2 (stereo not drawn) [Compound 132, 6-(2-(naphthalen-1-yl)ethyl)-1,4,5,6-tetrahydrocyclopenta[b]pyrrole-2-carboxylic acid]
≤ 1 | O=C(O)c1cc2c([nH]1)C(Cc1ccc(-c3ccccc3)cc1)CC2 (stereo not drawn) [Compound 133, 6-(biphenyl-4-ylmethyl)-1,4,5,6-tetrahydrocyclopenta[b]pyrrole-2-carboxylic acid]
